# Data from patent EP4230621A1, “SUBSTITUTED N-BENZOIC ACID URACILS, THEIR SALTS AND USE OF SAID COMPOUNDS AS HERBICIDAL AGENTS” (Bayer AG, priority 2022, dated 2023).
# What was measured:
# Assay type in all cases: in vivo
# Abutilon theophrasti = experiment: Post-emergence herbicidal action against ABUTH (greenhouse pot test); conditions: visual rating after ca. 3 weeks vs untreated controls (100% = plants dead, 0% = like controls)
# From the text: (§1) Die folgenden Abkürzungen werden für die in den folgenden Tabellen aufgeführten Kultur- und Schadpflanzen verwendet: ABUTH: Abutilon theophrasti ALOMY: Alopecurus myosuroides AMARE: Amaranthus retroflexus BRSNS: Brassica napus DIGSA: Digitaria sanguinalis ECHCG: Echinochloa crus-galli GLXMA: Glycine max KCHSC: Kochia scoparia LOLRI: Lolium rigidum MATIN: Matricaria inodora ORYZA: Oryza sativa PHPBU: Pharbitis purpurea POLCO: Polygonum convolvulus SETVI: Setaria viridis VERPE: Veronica persica VIOTR: Viola tricolor TRZAS: Triticum aestivum ZEAMX: Zea mays
# (§2) Samen von mono- bzw. dikotylen Unkrautpflanzen wurden in Kunststoff- oder Holzfasertöpfen in sandigem Lehmboden ausgelegt, mit Erde abgedeckt und im Gewächshaus unter kontrollierten Wachstumsbedingungen angezogen. 2 bis 3 Wochen nach der Aussaat wurden die Versuchspflanzen im Einblattstadium behandelt. Die in Form von benetzbaren Pulvern (WP) oder als Emulsionskonzentrate (EC) formulierten erfindungsgemäßen Verbindungen wurden dann als wässrige Suspension bzw. Emulsion unter Zusatz von 0,5% Additiv mit einer Wasseraufwandmenge von umgerechnet 600 1/ha auf die grünen Pflanzenteile gesprüht. Nach ca. 3 Wochen Standzeit der Versuchspflanzen im Gewächshaus, unter optimalen Wachstumsbedingungen, wurde die Wirkung der Präparate visuell im Vergleich zu unbehandelten Kontrollen bonitiert. Beispielsweise bedeutet 100% Wirkung = Pflanzen sind abgestorben, 0% Wirkung = wie Kontrollpflanzen.
# (§3) In den nachstehenden Tabellen A1 bis A11 sind die Wirkungen ausgewählter Verbindungen der allgemeinen Formel (I) gemäß der Tabelle 1 auf verschiedene Schadpflanzen und einer Aufwandmenge entsprechend 80 g/ha und niedriger, die gemäß zuvor genannter Versuchsvorschrift erhalten wurden, dargestellt. Tabelle A1a: Nachauflaufwirkung bei 5 g/ha gegen ABUTH in %
# Veronica persica = experiment: Post-emergence herbicidal action against VERPE (greenhouse pot test)
# From the text: as §1, §2, §3
# Amaranthus retroflexus = experiment: Post-emergence herbicidal action against AMARE (greenhouse pot test); conditions: visual rating after ca. 3 weeks vs untreated controls (100% = plants dead, 0% = like controls)
# From the text: as §1, §2, §3
# Matricaria inodora = experiment: Post-emergence herbicidal action against MATIN (greenhouse pot test); conditions: for Nachauflaufwirkung gegen MATIN: visual rating after ca. 3 weeks vs untreated controls (100% = plants dead, 0% = like controls); for Nachauflaufwirkung gegen MATIN in %: 80 g/ha
# From the text: as §1, §2, §3
# Pharbitis purpurea = experiment: Post-emergence herbicidal action against PHBPU (greenhouse pot test)
# From the text: as §1, §2, §3
# Setaria viridis = experiment: Post-emergence herbicidal action against SETVI (greenhouse pot test)
# From the text: as §1, §2, §3
# Digitaria sanguinalis = experiment: Post-emergence herbicidal action against DIGSA (greenhouse pot test); conditions: visual rating after ca. 3 weeks vs untreated controls (100% = plants dead, 0% = like controls)
# From the text: as §1, §2, §3
# Viola tricolor = experiment: Post-emergence herbicidal action against VIOTR (greenhouse pot test)
# From the text: as §1, §2, §3
# Triticum aestivum = experiment: Post-emergence action on crop plants, TRZAS (greenhouse pot test); conditions: crop plant
# From the text: as §1
# as §2, with “Kulturpflanzen” for “Unkrautpflanzen”
# as §3, with “B1” for “A1”, “B3” for “A11”, “Kulturpflanzen” for “Schadpflanzen”, “20” for “80”, “B1a:” for “A1a:”, “ZEAMX” for “ABUTH”
# Alopecurus myosuroides = experiment: Post-emergence herbicidal action against ALOMY (greenhouse pot test); conditions: visual rating after ca. 3 weeks vs untreated controls (100% = plants dead, 0% = like controls)
# From the text: as §1, §2, §3
# Lolium rigidum = experiment: Post-emergence herbicidal action against LOLRI (greenhouse pot test); conditions: 80 g/ha, visual rating after ca. 3 weeks vs untreated controls (100% = plants dead, 0% = like controls)
# From the text: as §1, §2, §3
# Polygonum convolvulus = experiment: Post-emergence herbicidal action against POLCO (greenhouse pot test)
# From the text: as §1, §2, §3
# Zea mays = experiment: Post-emergence action on crop plants, ZEAMX (greenhouse pot test); conditions: 5 g/ha, crop plant
# From the text: as §1
# as §2, with “Kulturpflanzen” for “Unkrautpflanzen”
# as §3, with “B1” for “A1”, “B3” for “A11”, “Kulturpflanzen” for “Schadpflanzen”, “20” for “80”, “B1a:” for “A1a:”, “ZEAMX” for “ABUTH”
SMILES,Nachauflaufwirkung gegen ABUTH (Abutilon theophrasti; 5 g/ha) [%],Nachauflaufwirkung gegen ABUTH (Abutilon theophrasti; 20 g/ha) [%],Nachauflaufwirkung gegen ABUTH (Abutilon theophrasti; 80 g/ha) [%],Nachauflaufwirkung gegen VERPE in % (Veronica persica; 5 g/ha) [%],Nachauflaufwirkung gegen VERPE in % (Veronica persica; 20 g/ha) [%],Nachauflaufwirkung gegen VERPE in % (Veronica persica; 80 g/ha) [%],Nachauflaufwirkung gegen AMARE (Amaranthus retroflexus; 5 g/ha) [%],Nachauflaufwirkung gegen AMARE (Amaranthus retroflexus; 20 g/ha) [%],Nachauflaufwirkung gegen AMARE (Amaranthus retroflexus; 80 g/ha) [%],Nachauflaufwirkung gegen MATIN (Matricaria inodora; 5 g/ha) [%],Nachauflaufwirkung gegen MATIN (Matricaria inodora; 20 g/ha) [%],Nachauflaufwirkung gegen MATIN in % (Matricaria inodora) [%],Nachauflaufwirkung gegen PHBPU in % (Pharbitis purpurea; 5 g/ha) [%],Nachauflaufwirkung gegen PHBPU in % (Pharbitis purpurea; 20 g/ha) [%],Nachauflaufwirkung gegen PHBPU in % (Pharbitis purpurea; 80 g/ha) [%],Nachauflaufwirkung gegen SETVI in % (Setaria viridis; 5 g/ha) [%],Nachauflaufwirkung gegen SETVI in % (Setaria viridis; 20 g/ha) [%],Nachauflaufwirkung gegen DIGSA (Digitaria sanguinalis; 5 g/ha) [%],Nachauflaufwirkung gegen DIGSA (Digitaria sanguinalis; 20 g/ha) [%],Nachauflaufwirkung gegen DIGSA (Digitaria sanguinalis; 80 g/ha) [%],other results
"Cn1c(C(F)(F)F)cc(=O)n(-c2cc(C(=O)OC(C)(C)C(=O)OCC#N)c(Cl)cc2F)c1=O [I.1-176, 1-(Cyanmethoxy)-2-methyl-1-oxopropan-2-yl-2-chlor-4-fluor-5-[3-methyl-2,6-dioxo-4-(trifluormethyl)-3,6-dihydropyrimidin-1(2H)-yl]benzoat]",100,100,100,100,100,100,100,100,100,100,100,100,100,100,100,100,100,100,100,100,Nachauflaufwirkung gegen SETVI in % (Setaria viridis; 80 g/ha (dose column; title A9c prints 20 g/ha)): 100%; Nachauflaufwirkung gegen VIOTR in % (Viola tricolor; 5 g/ha): 100%; Nachauflaufwirkung gegen VIOTR in % (Viola tricolor; 20 g/ha): 100%; Nachauflaufwirkung gegen VIOTR in % (Viola tricolor; 80 g/ha): 100%; Nachauflaufwirkung gegen TRZAS in % (Triticum aestivum; 5 g/ha): 10%; Nachauflaufwirkung gegen TRZAS in % (Triticum aestivum; 20 g/ha): 10%; Nachauflaufwirkung gegen ALOMY (Alopecurus myosuroides; 20 g/ha): 80%; Nachauflaufwirkung gegen ALOMY (Alopecurus myosuroides; 80 g/ha): 100%; Nachauflaufwirkung gegen LOLRI (Lolium rigidum): 90%; Nachauflaufwirkung gegen POLCO in % (Polygonum convolvulus; 5 g/ha): 100%; Nachauflaufwirkung gegen POLCO in % (Polygonum convolvulus; 20 g/ha): 100%; Nachauflaufwirkung gegen POLCO in % (Polygonum convolvulus; 80 g/ha): 100%
CC(C)=NOC(=O)C(C)(C)OC(=O)c1cc(-n2c(=O)cc(C(F)(F)F)n(C)c2=O)c(F)cc1Cl [I.1-476],100,100,100,100,100,100,100,100,100,100,100,100,100,100,100,100,100,100,100,100,Nachauflaufwirkung gegen SETVI in % (Setaria viridis; 80 g/ha): 100%; Nachauflaufwirkung gegen VIOTR in % (Viola tricolor; 5 g/ha): 100%; Nachauflaufwirkung gegen VIOTR in % (Viola tricolor; 20 g/ha): 100%; Nachauflaufwirkung gegen VIOTR in % (Viola tricolor; 80 g/ha): 100%; Nachauflaufwirkung gegen TRZAS in % (Triticum aestivum; 5 g/ha): 10%; Nachauflaufwirkung gegen TRZAS in % (Triticum aestivum; 20 g/ha): 10%; Nachauflaufwirkung gegen ALOMY (Alopecurus myosuroides; 20 g/ha): 100%; Nachauflaufwirkung gegen ALOMY (Alopecurus myosuroides; 80 g/ha): 100%; Nachauflaufwirkung gegen LOLRI (Lolium rigidum): 100%; Nachauflaufwirkung gegen POLCO in % (Polygonum convolvulus; 5 g/ha): 100%; Nachauflaufwirkung gegen POLCO in % (Polygonum convolvulus; 20 g/ha): 100%; Nachauflaufwirkung gegen POLCO in % (Polygonum convolvulus; 80 g/ha): 100%; Nachauflaufwirkung gegen ZEAMX in % (Zea mays): 20%
